{
  "source": "BindingDB's records for doi:10.1021/acs.jmedchem.9b01709",
  "about": "(The Institute of Cancer Research, 2019)",
  "biological_target": "Heat shock 70 kDa protein 1A (HSP72/HSPA1A) (Homo sapiens) (UniProt P0DMV8)",
  "sequence (P0DMV8 whole entry, looked up)": "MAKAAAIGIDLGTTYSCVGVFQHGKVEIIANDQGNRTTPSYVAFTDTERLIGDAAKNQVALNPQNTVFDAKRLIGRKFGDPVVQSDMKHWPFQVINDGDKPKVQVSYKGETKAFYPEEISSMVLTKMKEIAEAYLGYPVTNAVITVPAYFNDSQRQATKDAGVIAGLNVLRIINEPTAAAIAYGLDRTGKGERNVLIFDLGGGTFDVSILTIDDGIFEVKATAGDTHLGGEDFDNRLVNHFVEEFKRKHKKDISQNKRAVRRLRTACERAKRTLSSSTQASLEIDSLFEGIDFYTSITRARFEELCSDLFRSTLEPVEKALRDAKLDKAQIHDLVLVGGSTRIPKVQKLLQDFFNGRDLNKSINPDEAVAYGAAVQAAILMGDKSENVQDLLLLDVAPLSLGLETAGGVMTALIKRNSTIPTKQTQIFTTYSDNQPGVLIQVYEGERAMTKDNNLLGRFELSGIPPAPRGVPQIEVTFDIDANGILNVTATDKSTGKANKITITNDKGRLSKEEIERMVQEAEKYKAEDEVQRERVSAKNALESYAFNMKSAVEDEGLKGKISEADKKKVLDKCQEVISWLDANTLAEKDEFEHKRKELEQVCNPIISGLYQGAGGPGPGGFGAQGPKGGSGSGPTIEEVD",
  "assay": "Covalent inhibition of HSP72-NBD (unknown origin) nucleotide-derived FP probe displacement based by fluorescence polarization assay",
  "data": [
    {"smiles": "N#Cc1ccc(COC[C@H]2O[C@@H](n3c(NCc4ccc(Cl)c(Cl)c4)nc4c(N)ncnc43)[C@H](O)[C@@H]2O)cc1", "note": "[adenosine-derived inhibitor (Grp78), 13]", "values": [
      {"measurement": "Ki", "result": "< 200", "unit": "nM"}
    ]}
  ]
}
